In patent US9969742B2, “Imidazotriazinone compounds” (Ironwood Pharmaceuticals, Inc., priority 2012, dated 2018):
Where two headings read alike, the source gives them in different places.

Key:
Assay type in all cases: biochemical
[1] = target: T1, PDE9A2 (Homo sapiens, UniProt O76083); assay: Phosphodiesterase enzyme screening assay, PDE9A2; conditions: read-out: Band (PDE9A2 IC50)
T1 construct: purchased Reaction Biology Corporation, Malvern, Pa
In short: (§1)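 Compounds were tested on commercial human PDE enzymes using a fluorescent cGMP substrate at 4.0 μM, incubated for one hour at room temperature. Values are means of four wells versus controls.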

[2] = target: T2, PDE1A (Homo sapiens, UniProt P54750); assay: Phosphodiesterase enzyme screening assay, PDE1A
T2 construct: purchased Reaction Biology Corporation, Malvern, Pa
T2 sequence (P54750 whole entry): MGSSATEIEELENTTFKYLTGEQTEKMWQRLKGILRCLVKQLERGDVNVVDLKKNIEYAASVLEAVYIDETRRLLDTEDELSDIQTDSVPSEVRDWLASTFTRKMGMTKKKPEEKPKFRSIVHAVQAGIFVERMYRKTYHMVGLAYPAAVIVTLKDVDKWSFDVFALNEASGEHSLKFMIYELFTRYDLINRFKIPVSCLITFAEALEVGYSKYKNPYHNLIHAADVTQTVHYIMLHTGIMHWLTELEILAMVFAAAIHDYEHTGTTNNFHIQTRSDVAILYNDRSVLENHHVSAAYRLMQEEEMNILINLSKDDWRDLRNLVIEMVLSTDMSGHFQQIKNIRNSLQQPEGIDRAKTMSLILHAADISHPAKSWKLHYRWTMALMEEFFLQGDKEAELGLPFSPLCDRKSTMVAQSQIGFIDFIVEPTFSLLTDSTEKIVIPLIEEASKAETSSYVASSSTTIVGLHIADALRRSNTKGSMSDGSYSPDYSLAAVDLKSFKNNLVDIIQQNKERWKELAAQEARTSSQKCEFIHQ
In short: as §1

[3] = target: T3, PDE1B (Homo sapiens, UniProt Q01064); assay: Phosphodiesterase enzyme screening assay, PDE1B
T3 construct: purchased Reaction Biology Corporation, Malvern, Pa
T3 sequence (Q01064 whole entry): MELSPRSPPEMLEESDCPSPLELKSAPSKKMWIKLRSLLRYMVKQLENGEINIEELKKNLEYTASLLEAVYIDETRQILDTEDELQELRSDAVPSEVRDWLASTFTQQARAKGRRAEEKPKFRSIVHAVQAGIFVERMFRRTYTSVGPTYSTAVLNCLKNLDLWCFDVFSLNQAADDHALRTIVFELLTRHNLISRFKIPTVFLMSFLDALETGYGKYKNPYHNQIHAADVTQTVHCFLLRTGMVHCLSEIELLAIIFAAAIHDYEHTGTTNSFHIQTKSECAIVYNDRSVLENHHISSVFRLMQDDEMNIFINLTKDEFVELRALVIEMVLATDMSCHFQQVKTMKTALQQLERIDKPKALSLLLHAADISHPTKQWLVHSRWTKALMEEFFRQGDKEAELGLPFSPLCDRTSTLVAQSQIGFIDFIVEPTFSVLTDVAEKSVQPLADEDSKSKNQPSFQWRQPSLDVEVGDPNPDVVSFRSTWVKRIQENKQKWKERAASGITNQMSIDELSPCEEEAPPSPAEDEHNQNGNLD
In short: as §1

[4] = Table 3, 4.0 μM cGMP substrate, 1 hour at R.T.
[5] = ratio of IC50 values, PDE1A versus PDE9A2, value greater than 1 = greater selectivity for PDE9A2
[6] = ratio of IC50 values, PDE1B versus PDE9A2, value greater than 1 = greater selectivity for PDE9A2
[7] = 4.0 μM cGMP substrate, 1 hour at R.T.
[8] = ratio of IC50 values PDE1A / PDE9A2, value greater than 1 = greater selectivity for PDE9A2
[9] = ratio of IC50 values PDE1B / PDE9A2, value greater than 1 = greater selectivity for PDE9A2
[10] = ratio of IC50 values, value greater than 1 indicates greater selectivity for PDE9A2
[11] = Table 2, 10 concentrations, 4.0 μM cGMP substrate, 1 hour at R.T.
[12] = Table 2, ratio of IC50 values, value greater than 1 indicates greater selectivity for PDE9A2
[13] = Table 1, 10 concentrations, 4.0 μM cGMP substrate, 1 hour at R.T.
[14] = Table 1, ratio of IC50 values, value greater than 1 indicates greater selectivity for PDE9A2

T1 sequence (O76083 1-533 isoform O76083-2): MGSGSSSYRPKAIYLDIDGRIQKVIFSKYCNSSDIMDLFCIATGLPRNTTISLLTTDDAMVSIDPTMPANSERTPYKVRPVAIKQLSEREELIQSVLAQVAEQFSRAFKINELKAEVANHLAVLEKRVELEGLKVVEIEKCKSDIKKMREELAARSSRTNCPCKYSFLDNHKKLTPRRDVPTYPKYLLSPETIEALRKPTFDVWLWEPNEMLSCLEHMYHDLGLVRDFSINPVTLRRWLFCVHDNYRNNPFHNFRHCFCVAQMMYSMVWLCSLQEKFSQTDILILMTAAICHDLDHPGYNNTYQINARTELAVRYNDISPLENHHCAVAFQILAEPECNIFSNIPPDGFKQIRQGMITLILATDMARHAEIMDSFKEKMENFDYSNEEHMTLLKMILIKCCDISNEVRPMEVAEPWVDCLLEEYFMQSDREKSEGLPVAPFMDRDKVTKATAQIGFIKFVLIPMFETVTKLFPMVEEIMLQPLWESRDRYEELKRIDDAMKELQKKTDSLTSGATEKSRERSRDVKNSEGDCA

COc1cc(CN2CC(C)C(c3nn4c(C5CCOCC5)ncc4c(=O)[nH]3)C2)ccn1 (single isomer, unassigned; (+)) [(+)-2-((3,4-trans)-1-((2-methoxypyridin-4-yl)methyl)-4-methylpyrrolidin-3-yl)-7-(tetrahydro-2H-pyran-4-yl)imidazo[5,1-f][1,2,4]triazin-4(3H)-one]
IC50 [1, 4]: < 1 µM
PDE1A selectivity (versus PDE9A2) [2, 5]: 317
PDE1B selectivity (versus PDE9A2) [3, 6]: 607

COc1ncc(CN2CC(C)C(c3nn4c(C5CCOCC5)ncc4c(=O)[nH]3)C2)cn1 (single isomer, unassigned; (+)) [(+)-2-((3,4-trans)-1-((2-methoxypyrimidin-5-yl)methyl)-4-methylpyrrolidin-3-yl)-7-(tetrahydro-2H-pyran-4-yl)imidazo[5,1-f][1,2,4]triazin-4(3H)-one]
IC50 [1, 7]: < 1 µM
PDE1A selectivity (versus PDE9A2) [2, 8]: 1210
PDE1B selectivity (versus PDE9A2) [3, 9]: 3650

CC1CN(CC2CCC(F)(F)CC2)CC1c1nn2c(C3CCOCC3)ncc2c(=O)[nH]1 (single isomer, unassigned; (+)) [(+)-2-((3,4-trans)-1-((4,4-difluorocyclohexyl)methyl)-4-methylpyrrolidin-3-yl)-7-(tetrahydro-2H-pyran-4-yl)imidazo[5,1-f][1,2,4]triazin-4(3H)-one]
IC50 [1]: < 1 µM
PDE1A selectivity (versus PDE9A2) [2, 10]: 51
PDE1B selectivity (versus PDE9A2) [3, 10]: 68

Cc1cc(C)nc(CN2CC(C)C(c3nn4c(C5CCOCC5)ncc4c(=O)[nH]3)C2)n1 (single isomer, unassigned; (+)) [(+)-2-((3,4-trans)-1-((4,6-dimethylpyrimidin-2-yl)methyl)-4-methylpyrrolidin-3-yl)-7-(tetrahydro-2H-pyran-4-yl)imidazo[5,1-f][1,2,4]triazin-4(3H)-one]
IC50 [1, 11]: < 1 µM
PDE1A selectivity (versus PDE9A2) [2, 12]: 947
PDE1B selectivity (versus PDE9A2) [3, 12]: 767

CC1CN(Cc2nccc(N(C)C)n2)CC1c1nn2c(C3CCOCC3)ncc2c(=O)[nH]1 (single isomer, unassigned; (+)) [(+)-2-((3,4-trans)-1-((4-(dimethylamino)pyrimidin-2-yl)methyl)-4-methylpyrrolidin-3-yl)-7-(tetrahydro-2H-pyran-4-yl)imidazo[5,1-f][1,2,4]triazin-4(3H)-one]
IC50 [1, 11]: < 1 µM
PDE1A selectivity (versus PDE9A2) [2, 12]: 117
PDE1B selectivity (versus PDE9A2) [3, 12]: 177

CC1CN(Cc2nccc(C3CC3)n2)CC1c1nn2c(C3CCOCC3)ncc2c(=O)[nH]1 (single isomer, unassigned; (+)) [(+)-2-((3,4-trans)-1-((4-cyclopropylpyrimidin-2-yl)methyl)-4-methylpyrrolidin-3-yl)-7-(tetrahydro-2H-pyran-4-yl)imidazo[5,1-f][1,2,4]triazin-4(3H)-one]
IC50 [1, 11]: < 1 µM
PDE1A selectivity (versus PDE9A2) [2, 12]: 229
PDE1B selectivity (versus PDE9A2) [3, 12]: 403

COc1ccnc(CN2CC(C)C(c3nn4c(C5CCOCC5)ncc4c(=O)[nH]3)C2)c1 (single isomer, unassigned; (+)) [(+)-2-((3,4-trans)-1-((4-methoxypyridin-2-yl)methyl)-4-methylpyrrolidin-3-yl)-7-(tetrahydro-2H-pyran-4-yl)imidazo[5,1-f][1,2,4]triazin-4(3H)-one]
IC50 [1, 4]: < 1 µM
PDE1A selectivity (versus PDE9A2) [2, 5]: 466
PDE1B selectivity (versus PDE9A2) [3, 6]: 456

CC1CN(Cc2ccc(Cl)cn2)CC1c1nn2c(C3CCOCC3)ncc2c(=O)[nH]1 (single isomer, unassigned; (+)) [(+)-2-((3,4-trans)-1-((5-chloropyridin-2-yl)methyl)-4-methylpyrrolidin-3-yl)-7-(tetrahydro-2H-pyran-4-yl)imidazo[5,1-f][1,2,4]triazin-4(3H)-one]
IC50 [1, 7]: < 1 µM
PDE1A selectivity (versus PDE9A2) [2, 8]: 107
PDE1B selectivity (versus PDE9A2) [3, 9]: 184

CC1CN(Cc2ncc(Cl)cn2)CC1c1nn2c(C3CCOCC3)ncc2c(=O)[nH]1 (single isomer, unassigned; (+)) [(+)-2-((3,4-trans)-1-((5-chloropyrimidin-2-yl)methyl)-4-methylpyrrolidin-3-yl)-7-(tetrahydro-2H-pyran-4-yl)imidazo[5,1-f][1,2,4]triazin-4(3H)-one]
IC50 [1, 11]: < 1 µM
PDE1A selectivity (versus PDE9A2) [2, 12]: 95
PDE1B selectivity (versus PDE9A2) [3, 12]: 154

CC1CN(Cc2ncc(C3CC3)cn2)CC1c1nn2c(C3CCOCC3)ncc2c(=O)[nH]1 (single isomer, unassigned; (+)) [(+)-2-((3,4-trans)-1-((5-cyclopropylpyrimidin-2-yl)methyl)-4-methylpyrrolidin-3-yl)-7-(tetrahydro-2H-pyran-4-yl)imidazo[5,1-f][1,2,4]triazin-4(3H)-one]
IC50 [1, 11]: < 1 µM
PDE1A selectivity (versus PDE9A2) [2, 12]: 151
PDE1B selectivity (versus PDE9A2) [3, 12]: 670

CC1CN(Cc2ccc(F)cn2)CC1c1nn2c(C3CCOCC3)ncc2c(=O)[nH]1 (single isomer, unassigned; (+)) [(+)-2-((3,4-trans)-1-((5-fluoropyridin-2-yl)methyl)-4-methylpyrrolidin-3-yl)-7-(tetrahydro-2H-pyran-4-yl)imidazo[5,1-f][1,2,4]triazin-4(3H)-one]
IC50 [1, 4]: < 1 µM
PDE1A selectivity (versus PDE9A2) [2, 5]: 273
PDE1B selectivity (versus PDE9A2) [3, 6]: 377

CC1CN(Cc2ncc(F)cn2)CC1c1nn2c(C3CCOCC3)ncc2c(=O)[nH]1 (single isomer, unassigned; (+)) [(+)-2-((3,4-trans)-1-((5-fluoropyrimidin-2-yl)methyl)-4-methylpyrrolidin-3-yl)-7-(tetrahydro-2H-pyran-4-yl)imidazo[5,1-f][1,2,4]triazin-4(3H)-one]
IC50 [1, 11]: < 1 µM
PDE1A selectivity (versus PDE9A2) [2, 12]: 133
PDE1B selectivity (versus PDE9A2) [3, 12]: 279

COc1ccc(CN2CC(C)C(c3nn4c(C5CCOCC5)ncc4c(=O)[nH]3)C2)nc1 (single isomer, unassigned; (+)) [(+)-2-((3,4-trans)-1-((5-methoxypyridin-2-yl)methyl)-4-methylpyrrolidin-3-yl)-7-(tetrahydro-2H-pyran-4-yl)imidazo[5,1-f][1,2,4]triazin-4(3H)-one]
IC50 [1]: < 1 µM
PDE1A selectivity (versus PDE9A2) [2, 10]: 216
PDE1B selectivity (versus PDE9A2) [3, 10]: 540

COc1cncc(CN2CC(C)C(c3nn4c(C5CCOCC5)ncc4c(=O)[nH]3)C2)c1 (single isomer, unassigned; (+)) [(+)-2-((3,4-trans)-1-((5-methoxypyridin-3-yl)methyl)-4-methylpyrrolidin-3-yl)-7-(tetrahydro-2H-pyran-4-yl)imidazo[5,1-f][1,2,4]triazin-4(3H)-one]
IC50 [1, 7]: < 1 µM
PDE1A selectivity (versus PDE9A2) [2, 8]: 1060
PDE1B selectivity (versus PDE9A2) [3, 9]: 1780

COc1cnc(CN2CC(C)C(c3nn4c(C5CCOCC5)ncc4c(=O)[nH]3)C2)nc1 (single isomer, unassigned; (+)) [(+)-2-((3,4-trans)-1-((5-methoxypyrimidin-2-yl)methyl)-4-methylpyrrolidin-3-yl)-7-(tetrahydro-2H-pyran-4-yl)imidazo[5,1-f][1,2,4]triazin-4(3H)-one]
IC50 [1, 11]: < 1 µM
PDE1A selectivity (versus PDE9A2) [2, 12]: 26
PDE1B selectivity (versus PDE9A2) [3, 12]: 64

COc1cccc(CN2CC(C)C(c3nn4c(C5CCOCC5)ncc4c(=O)[nH]3)C2)n1 (single isomer, unassigned; (+)) [(+)-2-((3,4-trans)-1-((6-methoxypyridin-2-yl)methyl)-4-methylpyrrolidin-3-yl)-7-(tetrahydro-2H-pyran-4-yl)imidazo[5,1-f][1,2,4]triazin-4(3H)-one]
IC50 [1, 13]: < 1 µM
PDE1A selectivity (versus PDE9A2) [2, 14]: 579
PDE1B selectivity (versus PDE9A2) [3, 14]: 571

CC1CN(Cc2ccc3cccc(F)c3n2)CC1c1nn2c(C3CCOCC3)ncc2c(=O)[nH]1 (single isomer, unassigned; (+)) [(+)-2-((3,4-trans)-1-((8-fluoroquinolin-2-yl)methyl)-4-methylpyrrolidin-3-yl)-7-(tetrahydro-2H-pyran-4-yl)imidazo[5,1-f][1,2,4]triazin-4(3H)-one]
IC50 [1, 4]: < 1 µM
PDE1A selectivity (versus PDE9A2) [2, 5]: 39
PDE1B selectivity (versus PDE9A2) [3, 6]: 76

CC1CN(Cc2nc3ccccn3n2)CC1c1nn2c(-c3cccc(F)c3)ncc2c(=O)[nH]1 (single isomer, unassigned; (+)) [(+)-2-((3,4-trans)-1-([1,2,4]triazolo[1,5-a]pyridin-2-ylmethyl)-4-methylpyrrolidin-3-yl)-7-(3-fluorophenyl)imidazo[5,1-f][1,2,4]triazin-4(3H)-one]
IC50 [1]: < 1 µM
PDE1A selectivity (versus PDE9A2) ([2]; ratio of IC50 values, PDE1A versus PDE9A2, value greater than 1 indicates greater selectivity for PDE9A2): 3
PDE1B selectivity (versus PDE9A2) ([3]; ratio of IC50 values, PDE1B versus PDE9A2, value greater than 1 indicates greater selectivity for PDE9A2): 10

CC1CN(Cc2nc3ccccn3n2)CC1c1nn2c(C3CCC(F)(F)CC3)ncc2c(=O)[nH]1 (single isomer, unassigned; (+)) [(+)-2-((3,4-trans)-1-([1,2,4]triazolo[1,5-a]pyridin-2-ylmethyl)-4-methylpyrrolidin-3-yl)-7-(4,4-difluorocyclohexyl)imidazo[5,1-f][1,2,4]triazin-4(3H)-one]
IC50 [1, 13]: < 1 µM
PDE1A selectivity (versus PDE9A2) [2, 14]: 597
PDE1B selectivity (versus PDE9A2) [3, 14]: 1847
